Measured values from patent US8772309B2, “Pharmaceutical formulation of apomorphine for buccal administration” (Amarin Pharmaceuticals Ireland Limited, priority 2005, dated 2014).

Assays:
[1] = Ionisation of apomorphine (pKa, un-ionised proportion against pH); assay type: physicochemical
Source text: For optimal buccal absorption the apomorphine used should ideally be un-ionised at physiological pH.
If the pH of the product is adjusted to about 8.0, approximately 10% of the apomorphine becomes un-ionised and thus available for absorption. The pH-dependent degree of ionisation of the drug is maintained by a dynamic equilibrium. As un-ionised drug is removed by absorption, more ionised drug becomes un-ionised in order to restore the equilibrium. As a result there is always a sufficient amount of un-ionised drug generated that can be absorbed rapidly.

[2] = system: "on-off" fluctuations in Parkinson's disease; settings: sublingual administration, patients responsive to subcutaneous apomorphine; cited from earlier work

CN1CCc2cccc3c2[C@H]1Cc1ccc(O)c(O)c1-3 [apomorphine]
Proportion of apomorphine un-ionised ([1]; pH 3.5): negligible | Proportion of apomorphine un-ionised ([1]; pH adjusted to about 8.0): approximately 10% | Mean time to onset of effect [2]: approximately 30 minutes
